Test results as given in PMC12029786 (2025).

Legend:
[1] = test system: 17-3 RNA (RNA, aptamer) GGGAGACGCAACUGAAUGAAGAGCAGUAGCGAGUAGUUCACAAGAGCUGCUUCGGCAGGAUCUUGUAGGAAGUAAAUGUGCAAAUCCGUAACUAGUCGCGUCAC; experiment: fluorescence enhancement titration; conditions: 50 mM Mg2+; 40 mM Tris-Cl pH 7.5, 37 °C; 5 nM DMHBI titrated with RNA; Hill fit
[2] = test system: fr-1 RNA + fr-2 RNA (RNA, aptamer) GGUUUCCCCGAAGAGCAGUAGCGAGUAGGGGCCCAGCU/GGCUGGGAGGAAGUAAAUGUGCAAAUCCGUAACUAAACU; experiment: fluorescence enhancement; conditions: 10 mM Mg2+; 40 mM Tris-Cl pH 7.5, 37 °C; 0.1 μM each RNA, 0.1 μM DMHBI
[3] = test system: m1 mutant of 17-3min RNA (RNA, aptamer) GGGCUGUUUGAAGAGCAGUAGCGAGUAGAACACAAGCUUCGGCUUGUAGGAAGUAAAUGUGCAAAUCCGUAACUAGCCU; experiment: fluorescence enhancement; conditions: 10 mM Mg2+; 40 mM Tris-Cl pH 7.5, 37 °C; 0.1 μM RNA, 0.1 μM DMHBI
[4] = test system: Karashi A51G (RNA, aptamer) GGGCUGAAUGAAGAGCAGUAGCGAGUAGUUCACAAGCUUCGGCUUGUAGGGAGUAAAUGUGCAAAUCCGUAACUAGCCU; experiment: fluorescence enhancement; conditions: 10 mM Mg2+; 40 mM Tris-Cl pH 7.5, 37 °C; 0.1 μM RNA, 0.1 μM DMHBI
[5] = test system: 17-3minCP (RNA, aptamer) GGGCUUGUAGGAAGUAAAUGUGCAAAUCCGUAACUAGCUUCGGCUGAAUGAAGAGCAGUAGCGAGUAGUUCACAAGCCU; experiment: fluorescence enhancement; conditions: 10 mM Mg2+; 40 mM Tris-Cl pH 7.5, 37 °C; 0.1 μM RNA, 0.1 μM DMHBI
[6] = test system: Karashi G69A (RNA, aptamer) GGGCUGAAUGAAGAGCAGUAGCGAGUAGUUCACAAGCUUCGGCUUGUAGGAAGUAAAUGUGCAAAUCCAUAACUAGCCU; experiment: fluorescence enhancement; conditions: 10 mM Mg2+; 40 mM Tris-Cl pH 7.5, 37 °C; 0.1 μM RNA, 0.1 μM DMHBI
[7] = test system: Jigarashi RNA (RNA, aptamer) GGUUUCCCCGAAGAGCAGUAGCGAGUAGGGGCCCAGCUUCGGCUGGGAGGAAGUAAAUGUGCAAAUCCGUAACUAAACU; experiment: fluorescence enhancement; conditions: 10 mM Mg2+; 40 mM Tris-Cl pH 7.5, 37 °C; 0.1 μM RNA, 0.1 μM DMHBI
[8] = test system: Karashi (17-3min RNA) (RNA, aptamer) GGGCUGAAUGAAGAGCAGUAGCGAGUAGUUCACAAGCUUCGGCUUGUAGGAAGUAAAUGUGCAAAUCCGUAACUAGCCU; experiment: fluorescence enhancement; conditions: 10 mM Mg2+; 40 mM Tris-Cl pH 7.5, 37 °C; 0.1 μM RNA, 0.1 μM DMHBI
[9] = test system: m3 mutant of Karashi RNA (RNA, aptamer) GGGCUGCCUGAAGAGCAGUAGCGAGUAGGGCACAAGCUUCGGCUUGUAGGAAGUAAAUGUGCAAAUCCGUAACUAGCCU; experiment: fluorescence enhancement; conditions: 10 mM Mg2+; 40 mM Tris-Cl pH 7.5, 37 °C; 0.1 μM RNA, 0.1 μM DMHBI

Kd [1]: 43 nM
binding [2]: yes
binding [3]: yes
binding [4]: yes
binding [5]: yes
binding [6]: yes
binding [7]: yes
binding [8]: yes
binding [9]: yes
Structure (SMILES): COc1cc(/C=C2\N=C(C)N(C)C2=O)cc(OC)c1O
